Experimental data published in paper PMC8657723, “Novel Pituitary Actions of TAC4 Gene Products in Teleost” (International Journal of Molecular Sciences, 2021).
“Also recorded” adds a separate entry of the source. Ends that are not written are not given here.

Experiments:
[1] = system: mammals; design: method as in PMID 18337115; details: cited from earlier work
[2] = system: rats; design: method as in 2 sources, ref 26, 51 = [26]; PMID 19854230; doi:10.1016/j.peptides.2009.10.013; 26. Yang Y. Dong S. Effects of Endokinin A/B and Endokinin C/D on the modulation of pain in mice Peptides 2010 31 94 100 10.1016/j.peptides.2009.10.013 19854230 || [51]; PMID 12524318; doi:10.1016/S0006-3495(03)74885-1; 51. Grace R.C. Chandrashekar I.R. Cowsik S.M. Solution structure of the tachyk-inin peptide eledoisin Biophys. J. 2003 84 655 664 10.1016/S0006-3495(03)74885-1 12524318 PMC1302646 ||| ref 26, 53, 54 = [26]; PMID 19854230; doi:10.1016/j.peptides.2009.10.013; 26. Yang Y. Dong S. Effects of Endokinin A/B and Endokinin C/D on the modulation of pain in mice Peptides 2010 31 94 100 10.1016/j.peptides.2009.10.013 19854230 || [53]; PMID 17655832; doi:10.1016/j.brainres.2007.05.062; 53. Naono R. Nakayama T. Ikeda T. Matsushima O. Nishimori T. Leucine at the carboxyl-terminal of endokinins C and D contributes to elicitation of the antagonistic effect on substance P in rat pain pro || [54]; PMID 17101218; doi:10.1016/j.neulet.2006.09.024; 54. Yoshioka D. Takebuchi F. Nishimori T. Naono R. Ikeda T. Nakayama T. Intrathecal administration of the common carboxyl-terminal decapeptide in end-okinin A and endokinin B evokes scratching behavio; details: cited from earlier work; for pain-related behaviors: central administration, scratching, paw withdrawal, thermal hyperalgesia; for effect on SP- or EKA/B-induced pain-related behaviors: simultaneous treatment
[3] = system: six NKR isoforms; test: Functional activation of the six grass carp NKR isoforms, NFAT-Luc reporter in HEK293T cells; type: cell-based, grass carp (Ctenopharyngodon idellus); details: 24 h
Method: To clarify the receptor selectivity of TAC4 gene products, a transfection experiment was conducted in HEK293T cells, and the fluorescent signal was detected by the firefly luciferase reporter gene detection kit. Firstly, the cDNA sequences of neurokinin receptor 1 isoforms a (NK1Ra), neurokinin receptor 1 isoforms b (NK1Rb), NK2R, neurokinin receptor 3 isoforms a1 (NK3Ra1), neurokinin receptor 3 isoforms a2 (NK3Ra2), and neurokinin receptor 3 isoforms b (NK3Rb) were isolated from grass carp pituitary, and the coding region of the six receptors were then subcloned into the eukaryotic expression vector pcDNA3.1. Secondly, the HEK293T cells were co-transfected with the plasmids of NFAT-Luc (Nuclear factor of activated T cells-luciferase), green fluorescent protein (GFP), and each pcDNA3.1-NKRs by using Lipofectamine 3000 (Thermo Fisher). The transfected HEK293T cells were incubated with various concentration HK-1 (1–10,000 nM), HK-2 (1–10,000 nM), or HK1-V7F (1–10,000 nM) for 24 h, respectively. Finally, the transfected cells were collected to detect the luciferase value according to the instructions of the firefly luciferase reporter gene detection kit.
To clarify the receptor selectivity of HK1 and HK2 for the six NKRs, HEK-293T cell lines were established to stably express NK1Ra, NK1Rb, NK2R, NK3Rb, NK3Ra1, or NK3Ra2 were established, respectively. The cells were then used for transfection study with NFAT-Luc vectors, which was allowed for functional evaluation of the activation status of Ca^2+-dependent pathway.
Figure 2 Receptor selectivity of HK1, HK2, and HK1-V7F. The nuclear factor of activated T-cells (NFAT)-Luc reporter together with NK1Ra, NK1Rb, NK2R, NK3Rb, NK3Ra1, or NK3Ra2, were transiently transfected into HEK-293 cells, respectively. The cells were incubated with increasing levels of grass carp HK1, HK2, or HK1-V7F (0.1–1000 nM), respectively. The luciferase activities were normalized against renilla expression in the same sample to adjust for potential variations in transfection efficiency. Each point is determined quadruplicate and is given as a mean ± SEM. The groups denoted by different letters represent significant differences at p-value < 0.05 (ANOVA followed Dunnett’s test).

[4] = system: grass carp pituitary cells; test: RT-qPCR of pituitary gene mRNA expression after peptide treatment of grass carp pituitary cells; type: cell-based, grass carp (Ctenopharyngodon idellus); details: 0.1–1000 nM, 24 h
Description: To further confirm the pituitary actions of HKs in grass carp, trypsin digestion method was used to prepare for grass carp primary cultured pituitary cells. […] After drug treatment, total RNA was extracted from adherent cells by Trizol, and then subjected to reverse transcription using HifairTM III 1st Strand cDNA Synthesis Kit (Yeasen, Shanghai, China). In the present study, β-actin was used as the internal reference gene, and then, the transcript levels of PRL, SLα, CART2, UTS1, and NMB1 were detected by using a ABI 7500 real-time PCR system (see Supplementary Table S2 for primer sequences and PCR condition). In addition, the plasmid DNA containing the gene coding sequence was serially diluted as a standard for data calibration.
In this study, RT-qPCR was used to detect mRNA expression for TAC4, NKRs, PRL, SLα, CART2, UTS1, SN2, and NMB1. In the ABI7500 software, the dynamic mRNA concentration detection range of the double standard curve is 10^5, and the correlation coefficient is >0.95. […] In the transfection experiment, the detected firefly luciferase activity was routinely normalized with the GFP activity expressed in the same well, expressed as the luciferin activity ratio Luc ratio. The data from four parallel experiments was presented as mean ± SEM in the figure. All the data were analyzed by ANOVA, and then subjected to Dunnett’s test in GraphPad Prism 7.0. The significant differences between groups were indicated by p < 0.05.
Figure 5 TAC4 gene products (HK1 and HK2) induced PRL (A) and SLα (B) mRNA expression in grass carp pituitary cells. Time course of grass carp HK1 (1 μM) and HK2 (1 μM) on PRL (A) and SLα (B) mRNA expression in grass carp pituitary cells. Dose-dependence of 24-h treatment with increasing levels of HK1 and HK2 (0.1–1000 nM) on PRL (A) and SLα (B) mRNA expression in grass carp pituitary cells. After drug treatment, the total RNA of the cells was extracted by the Trizol method, and the expression of various genes was detected by RT-PCR. Data presented were expressed as mean ± SEM, and the differences between groups were significant at p-value < 0.05 by labeling diverse letters.
Figure 6 TAC4 gene products (HK1 and HK2) induced CART2, NMB1, and UTS1 mRNA expression in grass carp pituitary cells. Time course of grass carp HK1 (1 μM) and HK2 (1 μM) on CART2 (A), NMB1 (B), and UTS1 (C) mRNA expression in grass carp pituitary cells. Dose-dependence of 24-h treatment with increasing levels of HK1 or HK2 (0.1–1000 nM) on CART2 (A), NMB1 (B), and UTS1 (C) mRNA expression in grass carp pituitary cells. After drug treatment, the total RNA of the cells was extracted by the Trizol method, and the expression of various genes were detected by RT-PCR. Data presented were expressed as mean ± SEM, and the differences between groups were significant at p-value < 0.05 by labeling diverse letters.
Figure 9 Phe to Val mutation in FXGLM motif in PRL, SLα, and UTS1 regulation by HK2 in grass carp pituitary cells. (A) Effects of HK1-V7F on PRL, SLα, and UTS1 mRNA expression in grass carp pituitary cells. In this experiment, grass carp pituitary cells were incubated for 24 h with increasing levels of HK1-V7F (0.1–1000 nM). (B) Suppressed effects of HK1 on HK2-induced PRL, SLα, and UTS1 mRNA expression in grass carp pituitary cells. Pituitary cells were challenged for 24 h with grass carp HK2 (0.1 µM) in the presence or absence of HK1 (1 µM) and HK1 (10 µM). In these experiment, Trizol method was used to extract total cell RNA, and RT-PCR was used to detect PRL, SLα, and UTS1 mRNA expression. Data presented are expressed as mean ± SEM, and the differences between groups were significant at p-value < 0.05 by labeling diverse letters.

[5] = system: carp pituitary cells; details: cited from earlier work; for LHβ secretion / PRL and SLα transcriptional levels / PRL secretion / SLα secretion: pituitary cells of carp
Description: In mammals, the tachykinin (TAC) family includes three members, namely tachykinin 1 (TAC1), tachykinin 3 (TAC3) (tachykinin 2 (TAC2) in rodents), and TAC4, respectively. Among them, TAC1 gene encodes substance P (SP) and neurokinin A (NKA). SP is known to be involved in the regulation of pain control/injury, neurogenicinflammation and obesity with mammals. Compared with mammals, teleost have undergone an additional genome duplication during evolution, which is called fish-specific genome duplication (FSGD) or the 3R hypothesis. […] The resear ... || In mammals, many studies have focused on the actions of hemokinin on immunological regulation and inflammation. However, little information is available about its endocrinology function. […] Similar resu ... || (+ 1 further places)

[6] = system: carp NK2R; design: method as in PMID 28323939; details: cited from earlier work
Description: In mammals, the biological action of tachykinins is mediated by three GPCRs, namely NK1R, NK2R, and NK3R, which are stimulated preferentially by SP, NKA, and NKB, respectively. […] In the present study, due to the third round whole-genome duplication, 6 NKRs were detected in grass carp, namely NK1Ra, NK1Rb, NK2R, NK3Ra1, NK3Ra2, and NK3Rb, respectively. Based on the ...

[7] = system: sexually mature female zebrafish; details: intraperitoneal injection; cited from earlier work
Description: In mammals, TAC3 encodes neurokinin B (NKB), is known to be involved in the regulation of smooth muscles of the gastrointestinal tract, secretion of intestinal epithelial fluid, vasodilation, and stimulating sperm motility. […] The resear ...

[8] = design: method as in PMID 20233609, PMID 23317790; details: cited from earlier work

Substance: CRH: corticortropin-releasing hormone (SEEPPISLDLTFHLLREVLEMARAEQLAQQAHSNRKLMEII; ends and bridges not checked; UniProt P06850 154-194, looked up)
- food intake and energy expenditure [1]: reduce food intake and induce energy expenditure

Substance: EKA/B: endokinins A and B, human TAC4 products (GKASQFFGLM; ends and bridges not checked; UniProt Q86UU9 58-67, looked up)
- pain-related behaviors [2]: induce pain-related behaviors

Substance: TPGLQQFFGLM-NH2 [HK1-V7F, Val to Phe mutant of HK1, …-NH2]
- ED50, NFAT-Luc luciferase activity, NKR isoforms (in words) ([3]; HEK-293T expressing each NKR): nanomolar dose range
- activation of the six NKR isoforms (in words) ([3]; NFAT-Luc luciferase, HEK293T, NK1Ra, NK1Rb, NK2R, NK3Ra1, NK3Ra2, NK3Rb): notably enhanced
- PRL mRNA expression, HK1-V7F dose-response [4]: levels comparable to that induced by HK2
- SLα mRNA expression, HK1-V7F dose-response [4]: levels comparable to that induced by HK2; also recorded: markedly enhanced to the levels for HK2
- UTS1 mRNA expression, HK1-V7F dose-response [4]: levels comparable to that induced by HK2

Substance: endokinin C (KKAYQLEHTFQGLL; ends and bridges not checked; UniProt Q86UU9 82-95, looked up) [EKC, human TAC4 product with FXGLL motif]
- effect on SP- or EKA/B-induced pain-related behaviors [2]: can be blocked

Substance: endokinin D [EKD]
- effect on SP- or EKA/B-induced pain-related behaviors [2]: can be blocked

Substance: neurokinin A (HKTDSFVGLM; ends and bridges not checked; UniProt P20366 98-107, looked up) [NKA, TAC1 gene product]
- LHβ secretion [5]: can trigger the secretion
- PRL and SLα transcriptional levels [5]: increase in parallel
- PRL secretion [5]: can trigger the secretion
- SLα secretion [5]: can trigger the secretion
- activation of carp NK2R [6]: comparable efficacy and potency

Substance: neurokinin B (DMHDFFVGLM; ends and bridges not checked; UniProt Q9UHF0 81-90, looked up) [NKB, TAC3 gene product]
- LHβ secretion in zebrafish [7]: induce LHβ secretion
- pituitary PRL and SLα synthesis and secretion [5]: significantly induce pituitary PRL and SLα synthesis and secretion
- PRL and SLα secretion and mRNA synthesis ([5]; grass carp pituitary cells): promote PRL and SLα secretion and mRNA synthesis
- UTS1, CART2 and NMB1 mRNA expression ([5]; grass carp pituitary cells): could stimulate

Substance: neurokinin B-related peptide [NKBRP]
- LHβ secretion in zebrafish [7]: induce LHβ secretion
- PRL and SLα secretion and mRNA synthesis ([5]; grass carp pituitary cells): promote PRL and SLα secretion and mRNA synthesis

Substance: neuromedin B [NMB]
- feeding and gastric peristalsis [8]: inhibit feeding and gastric peristalsis

Substance: substance P (RPKPQQFFGLM; ends and bridges not checked; UniProt P20366 58-68, looked up) [SP, TAC1 gene product]
- LHβ release, short-term treatment ([5]; 3 h): induced the release of LHβ
- LHβ mRNA expression, prolonged treatment ([5]; 24 h): inhibited LHβ mRNA expression
- LHβ secretion [5]: can trigger the secretion
- PRL and SLα transcriptional levels [5]: increase in parallel
- PRL secretion [5]: can trigger the secretion
- SLα secretion [5]: can trigger the secretion
- pain-related behaviors [2]: induce pain-related behaviors
- activation of carp NK2R [6]: comparable efficacy and potency
